# Measured values: US8183001B2 (priority 2006, dated 2012)
# Tests used:
# Format in all cases: cell-based, C. elegans
# UNC-49B-PS7 [1] = tested on: UNC-49B-PS7
# Protocol: (§1) Electrophysiology: Plasmids containing wild-type and mutagenized GABAA receptor subunits were linearized and transcribed in vitro using T3 RNA polymerase (mMessage mMachine T3 kit, Ambion, Austin Tex.). UNC-49B mRNA was injected into Xenopus laevis oocytes at 0.5 μg/μl either alone, or in a mixture with 0.5 μg/μl UNC-49C. […] The injection volume ranged between 27.6 nl to 50.6 nl. […] Cells were voltage clamped at −60 mV. All recordings were performed at room temperature.
# TM chimera = TM chimera (Caenorhabditis elegans, UniProt G5ECD3+G5EE10); settings: TM chimera homomer; 5 μM PS
# TM chimera, sequence (G5EE10 256-448, change not shown, one chain of several): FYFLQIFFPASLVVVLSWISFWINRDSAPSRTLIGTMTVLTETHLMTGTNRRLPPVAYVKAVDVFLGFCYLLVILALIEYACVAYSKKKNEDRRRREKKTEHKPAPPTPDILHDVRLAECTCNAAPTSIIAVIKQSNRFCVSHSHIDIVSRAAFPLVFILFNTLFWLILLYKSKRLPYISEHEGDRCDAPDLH
# Protocol: as §1
# X(I265S, Q259N) = X(I265S, Q259N) (Caenorhabditis elegans, UniProt G5ECD3, I262F/I265S/M258L/N305R/S264A/T257F/V261F); settings: X(I265S, Q259N); at EC50 GABA
# Protocol: as §1
# X chimera = X chimera (Caenorhabditis elegans, UniProt G5ECD3, I262F/M258L/N259Q/N305R/S264A/T257F/V261F); settings: at EC50 GABA
# Protocol: as §1
# M1 chimera = M1 chimera (Caenorhabditis elegans, UniProt G5ECD3+G5EE10); settings: at EC50 GABA
# M1 chimera, sequence (G5ECD3 entry or part of it, change not shown): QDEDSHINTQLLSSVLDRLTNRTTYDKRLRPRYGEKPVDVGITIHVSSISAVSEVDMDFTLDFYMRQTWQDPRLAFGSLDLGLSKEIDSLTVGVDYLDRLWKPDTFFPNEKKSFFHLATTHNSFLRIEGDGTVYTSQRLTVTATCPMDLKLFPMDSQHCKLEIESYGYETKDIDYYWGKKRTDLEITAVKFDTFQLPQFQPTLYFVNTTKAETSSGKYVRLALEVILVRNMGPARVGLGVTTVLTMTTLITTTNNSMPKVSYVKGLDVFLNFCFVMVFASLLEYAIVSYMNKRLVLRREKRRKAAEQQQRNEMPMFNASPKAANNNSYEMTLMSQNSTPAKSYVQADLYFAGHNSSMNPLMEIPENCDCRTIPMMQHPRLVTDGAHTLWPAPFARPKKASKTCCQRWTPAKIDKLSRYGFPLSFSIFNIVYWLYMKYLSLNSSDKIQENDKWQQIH
# M1 chimera, sequence (G5EE10 256-283, change not shown): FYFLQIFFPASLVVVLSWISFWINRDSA
# Protocol: as §1
# linker chimera = linker chimera (Caenorhabditis elegans, UniProt G5ECD3, N305R, form not given); settings: at EC50 GABA
# Protocol: as §1
# N305R = N305R (Caenorhabditis elegans, UniProt G5ECD3, N305R); settings: at EC50 GABA
# Protocol: as §1
# X(I265S) = X(I265S) (Caenorhabditis elegans, UniProt G5ECD3, I262F/I265S/M258L/N259Q/N305R/S264A/T257F/V261F); settings: at EC50 GABA
# Protocol: as §1
# XZ chimera = XZ chimera (Caenorhabditis elegans, UniProt G5ECD3, A281S/E280D/I262F/L277I/M258L/N259Q/N305R/S264A/S282A/T257F/V261F); settings: at EC50 GABA
# Protocol: as §1
# X(I270L) = X(I270L) (Caenorhabditis elegans, UniProt G5ECD3, I262F/I270L/M258L/N259Q/N305R/S264A/T257F/V261F); settings: at EC50 GABA
# Protocol: as §1
# UNC-49B-PS7 [2] = target: UNC-49B-PS7 (Caenorhabditis elegans, UniProt G5ECD3, I262F/I265S/M258L/N259Q/N305R/S264A/T257F); settings: UNC-49B-PS7; at EC50 GABA
# Protocol: as §1
# XY chimera = XY chimera (Caenorhabditis elegans, UniProt G5ECD3, I262F/I265S/I267V/I270L/M258L/N259Q/N305R/S264A/T257F/T269V/V261F/V273I); settings: XY chimera; at EC50 GABA
# Protocol: as §1
# M1-R = M1-R (Caenorhabditis elegans, UniProt G5ECD3+G5EE10, N305R, form not given); settings: at EC50 GABA
# M1-R, sequence (G5ECD3 entry or part of it, stated change not applied): as the sequence (G5ECD3 entry or part of it, change not shown) above
# Protocol: as §1
# Y(M258L) = target: T1, Y(M258L) (Caenorhabditis elegans, UniProt G5ECD3, I265S/I267V/I270L/M258L/N259Q/N305R/T269V/V261F/V273I); settings: M258L mutant; median of 1000 bootstrap trials
# T1 sequence (G5ECD3 23-506 M258L/N259Q/V261F/I265S/I267V/T269V/I270L/V273I/N305R): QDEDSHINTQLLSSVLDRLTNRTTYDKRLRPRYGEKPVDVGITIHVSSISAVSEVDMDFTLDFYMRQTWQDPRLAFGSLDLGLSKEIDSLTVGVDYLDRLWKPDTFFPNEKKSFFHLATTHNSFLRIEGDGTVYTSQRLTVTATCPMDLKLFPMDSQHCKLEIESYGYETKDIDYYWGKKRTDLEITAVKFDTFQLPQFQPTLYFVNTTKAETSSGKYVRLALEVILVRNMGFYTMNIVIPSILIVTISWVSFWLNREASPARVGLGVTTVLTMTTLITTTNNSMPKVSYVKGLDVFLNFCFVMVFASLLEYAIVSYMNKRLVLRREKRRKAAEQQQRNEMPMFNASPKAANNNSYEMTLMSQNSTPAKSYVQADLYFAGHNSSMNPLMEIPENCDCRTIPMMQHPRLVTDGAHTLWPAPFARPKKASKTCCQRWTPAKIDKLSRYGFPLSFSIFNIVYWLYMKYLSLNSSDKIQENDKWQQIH
# Protocol: as §1
# (§2) Error bars in the figures are standard error of the mean. All drugs were obtained from Sigma (St. Louis). […] Picrotoxin was prepared as a 100 mM stock in DMSO.
# (§3) Important residues in the X segment were tested by substituting UNC-49C residues into the Y chimera. […] These divergent X segment residues were tested by mutating them from UNC-49B to UNC-49C amino acids in the Y chimera background.
# Y(M258L/S264A) = target: T2, Y(M258L/S264A) (Caenorhabditis elegans, UniProt G5ECD3, I265S/I267V/I270L/M258L/N259Q/N305R/S264A/T269V/V261F/V273I); settings: M258L/S264A mutant; median of 1000 bootstrap trials
# T2 sequence (G5ECD3 23-506 M258L/N259Q/V261F/S264A/I265S/I267V/T269V/I270L/V273I/N305R): T1 sequence (G5ECD3 23-506 M258L/N259Q/V261F/I265S/I267V/T269V/I270L/V273I/N305R)
# Protocol: as §1, §2, §3
substance,measurement,setting,value
pregnenolone sulfate [PS],fold increase in PS sensitivity,UNC-49B-PS7 [1]; UNC-49B-PS7 versus UNC-49B subunit,58 fold
same,fold difference in PS sensitivity,UNC-49B-PS7 [1]; UNC-49B-PS7 versus UNC-49B/C heteromer,1.4 fold
same,PS inhibition,TM chimera,strongly inhibited
same,PS Slope coefficient,"X(I265S, Q259N)",0.9 ± 0.0
same,PS Slope coefficient,X chimera,1.0 ± 0.03
same,PS Slope coefficient,M1 chimera,0.9 ± 0.1 (n = 4)
same,PS Slope coefficient,linker chimera,1.3 ± 0.2 (n = 5)
same,PS Slope coefficient,N305R,1.9 ± 0.2 (n = 4)
same,PS Slope coefficient,X(I265S),1.1 ± 0.1
same,PS Slope coefficient,XZ chimera,1.1 ± .06
same,PS Slope coefficient,X(I270L),1.5 ± 0.1
same,PS Slope coefficient,UNC-49B-PS7 [2],1.0 ± 0.0
same,PS Slope coefficient,XY chimera,1.6 ± 0.2
same,PS Slope coefficient,M1-R,1.2 ± 0.1 (n = 8)
same,"A, amplitude of normalized current above 1 (biphasic fit)",Y(M258L),1.56
same,"nE, slope coefficient for the enhancement",Y(M258L),1.0
same,"nI, slope coefficient for the inhibition",Y(M258L),1.8
same,"A, amplitude of normalized current above 1 (biphasic fit)",Y(M258L/S264A),1.0
same,"nE, slope coefficient for the enhancement",Y(M258L/S264A),1.3
same,"nI, slope coefficient for the inhibition",Y(M258L/S264A),1 .9
